# Reference: patent US20080287375A1, “Selective Glycosidase Inhibitors, Methods of Making Inhibitors, and Uses Thereof” (SIMON FRASER UNIVERSITY, priority 2005, published 2008)
# Entries after “also recorded” stand apart in the source; their conditions may differ.
# Key:
# [1] = system: O-GlcNAc-modified proteins in COS-7 cells; assay: Western blot of O-GlcNAc-modified proteins in COS-7 cells cultured with inhibitors; type: cell-based; conditions: 50 μM inhibitor
# Protocol: (§1) COS-7 cells were cultured in DMEM medium (Invitrogen) supplemented with 5-10% FBS (Invitrogen). Aliquots of inhibitors (50 μL of a stock in 95% ethanol) were delivered onto tissue culture plates and the ethanol was evaporated. The cells were incubated at 37° C. for 40 hours at which time they reached approximately 80% confluence. […] COS-7 cells were cultured to 25% confluence in 5% FBS and an aliquot (100 μL) of inhibitor dissolved in media and filter sterilized was added to each plate to yield a final concentration of 50 μM of inhibitor. COS-7 cells (2×10 cm plates) were harvested at the appropriate times by scraping and were pooled by centrifugation (200×g, 10 min). Cells were washed once with PBS, pH 7.0 (10 mL) and pelleted (200×g, 10 min). The cells could be frozen at −80° C. at this point. Control cultures without inhibitors were treated in the same manner.
# A culture of control cells was treated in the same manner as follows but the cultures contained no inhibitor. Cells were harvested as described above. Frozen cells were thawed at 4° C., and cold lysis buffer (1 mL of 50 mM Tris, pH 8.0 containing 150 mM NaCl, 1 mM EDTA, 1 mM PMSF, 1% NP-40, 0.5% sodium deoxycholate, and 1 mM of inhibitor 90) was added. After 10 minutes at 4° C. the solution was centrifuged at 14,000 rpm in an Eppendorf 5415C microcentrifuge and the supernatant was collected. SDS/PAGE loading buffer was added to an aliquot (15 μL) of each sample, and after heating at 96° C. aliquots were loaded onto 10% or 12% Tris-HCl polyacrylamide gels. After electrophoresis, the samples were electroblotted to nitrocellulose membrane (0.45 μm, Bio-Rad). Transfer was verified by visual inspection of the transfer of prestained markers (Dual Colour Precision Plus Protein Standard—Biorad). The membrane was blocked by using 5% BSA (fraction V, Sigma) in PBS (blocking buffer A for samples probed with mouse anti-O-GlcNAc monoclonal IgM antibody (MAb CTD 110.6—Covance)) or 5% low-fat dry powdered milk (blocking buffer B for samples probed with anti-β-actin), pH 7.4, containing 0.1% Tween 20 for 1 h at room temperature or overnight at 4° C. The blocking solution was decanted, and a solution of blocking buffer A containing MAb CTD 110.6 (1:2500 of the stock) or blocking buffer B containing mouse monoclonal anti-β-actin IgG (Clone AC-40—Sigma) was added (1:1000 dilution) as appropriate. The membrane was incubated at room temperature for 1 h or overnight at 4° C. after which the blocking buffer was decanted and the membrane was rinsed with PBS, pH 7.4, containing 0.1% Tween 20 (wash buffer). Membranes were then rinsed for 2×5 min and 3×15 min with wash buffer. For immunological detection of O-GlcNAc, the membrane was incubated in blocking buffer A for 1 hour at RT and, after washing, the membrane was incubated with a secondary goat anti-mouse-IgM-HRP-conjugate (1:2500, Santa Cruz Biotech) for one hour at RT or 4° C. overnight in blocking solution. For detection of β-actin levels, the membrane was incubated with a secondary goat anti-mouse-IgG-HRP conjugate (1:100000, Sigma) for one hour at RT or 4° C. overnight in blocking solution B. Membranes were washed and detection of membrane bound goat anti-mouse-IgG-HRP conjugate was accomplished by chemiluminescent detection using the SuperSignal West Pico Chemiluminescent Detection Kit (Pierce) and film (Kodak Biomax MR).
# COS-7 cells = assay: Proliferation rate and morphology of COS-7 cells incubated with inhibitors; type: cell-based; conditions: 50 μM inhibitor
# Protocol: as §1
smiles,measurement,setting,value
"CCCC1=N[C@@H]2[C@@H](O)[C@H](O)[C@@H](CO)O[C@@H]2S1 [Compound 9c, 1,2-dideoxy-2′-propyl-α-D-glucopyranoso-[2,1-d]-2′-thiazoline]",cellular levels of O-GlcNAc-modified proteins compared to control,"[1]; 40 hours, Western blot",Marked increases; also recorded: increase in cellular levels of O-GlcNAc-modified proteins
same,levels of O-GlcNAc-modified proteins after one hour of exposure,[1]; one hour,increases in levels of O-GlcNAc-modified proteins were observed
same,levels of O-GlcNAc-modified proteins as a function of time,[1]; over 40 hours,clear time dependent increase
same,proliferation rate or morphology compared to control cells,COS-7 cells,no abnormalities in proliferation rate or morphology
